The text below walks through data of patent US20130281313A1, “PROGNOSTIC AND/OR PREDICTIVE BIOMARKERS AND BIOLOGICAL APPLICATIONS THEREOF” (INSTITUT GUSTAVE ROUSSY, priority 2010, published 2013).

Holding throughout (assay type): cell-based, human
The subject of data set [1] is TP53 (phospho-Ser15, phospho-Ser46), caspase-3, caspase-9. As to the kind of experiment: Immunoblotting of the intrinsic apoptosis pathway. The following applies: A549 cells, sub-apoptotic (25 μM) CDDP in the presence of PN. How it is done:
For the preparation of total protein extracts A549 cells were washed with cold PBS and lysed in a buffer containing 1% NP40, 20 mM HEPES (pH 7.9), 10 mM KCl, 1 mM EDTA, 10% glycerol, 1 mM orthovanadate, 1 mM PMSF, 1 mM dithiothreitol, 10 μg/mL aprotinin, 10 μg/mL leupeptin, and 10 μg/mL pepstatin, according to established protocols {Zermati, 2007}. […]
(Immunoblotting shows a protein as a band on a membrane.)

The test system of data set [2] is A549 cells. As to the kind of experiment: Quantification of intracellular PN (LC-MS/MS). The following applies: 24 or 48 h. The protocol:
A549 cells were cultured in absence or the presence of 5 mM PN for 24 or 48 h, harvested, washed once in cold PBS and pelleted at 800 G for 10 min. Supernatants were discarded and pellets were dissolved in 500 μL of deionized H2O by vortexing for 1 min followed by sonication for 10 min. Thereafter, lysates were centrifuged at 5,796 G for 10 min and 60 μL of the resulting supernatant were mixed with an equal volume of trichloroacetic acid (TCA). Upon additional centrifugation (5,796 G, 10 min), 50 μL of sample were injected onto the chromatographic column and PN was measured by liquid chromatography with tandem mass spectrometry (LC-MS/MS), as previously described {Johansson, 2010; Midttun, 2009}.

Data set [3] concerns A549 cells. As to the kind of experiment: Targeted metabolomic studies (ATP, ADP, AMP, GSH; RRLC-MS). The conditions noted are these: A549 cells, 24 h. How it is done:
A549 cells were left untreated or treated with 25 μM CDDP alone or in combination with 5 mM PN, for 24 h. Thereafter, both attached (living) and detached (dying/dead) cells were harvested, washed once in cold PBS and pelleted (800 G for 5 min). Pellets were resuspended in 200 μL deionized water, briefly vortexed and sonicated. 800 μl ice-cold methanol was added, and samples were kept in ice for 15 min, vortexed and centrifuged at 13,000 G for 10 min at 4° C. Supernatants were dried in a SpeedVac drier (Thermo Scientific-Pierce) and stored at −80° C. until analysis. Pellets were resuspended in 150 μL 98:2 water/acetonitrile immediately before analytical determinations (see below).
ATP, ADP, AMP and GSH were quantified on a Rapid Resolution Liquid Chromatography (RRLC) 1200SL system coupled to a 6410 Triple Quadripole (QQQ) mass spectrometer (both from Agilent Technologies). For nucleotides, RRLC was performed on 150×2.1 mm, 3.5 μM Eclipse Plus columns (Agilent Technologies) with water containing 4 mM dimethylhexylamine (DMHA) plus 0.01% (v/v) acetic acid in channel A and acetonitrile in channel B, in gradient mode at a flow rate of 0.2 mL/min: t=0 min 2% B; t=9 min 32% B; t=10 min 95% B; T=12 min 95% B, re-equilibration time=6 min. Mass spectrometry was performed in positive electrospray ionization mode at +4 kV on the QQQ system operating in MRM mode. MRM transitions were optimized with direct infusions of ATP, ADP, and AMP standards with direct infusion, and four transitions were recorded for each compounds. Parent ions were adduct ions of DMHA and also proton adducts:
For GSH, RRLC was performed on a 150×2.1 mm, 3.5 μM Stable Bond AQ column (Agilent Technologies) with water containing 0.2% (v/v) acetic acid in channel A and methanol in channel B, in gradient mode at a flow rate of 0.3 mL/min: t=0 min 2% B; t=8 min 95% B; t=9 min 95% B; re-equilibration time=6 min. Mass spectrometry was performed as above. MRM transitions were optimized with direct infusion of GSH standards.
Data collection and analysis were performed with the MassHunter software (Agilent Technologies).

Turning to `Cc1ncc(CO)c(CO)c1O` [PN, pyridoxine], in data set [1], the “activating phosphorylation of TP53 on serines 15 and 46” value was “an increased activating phosphorylation of TP53 on serines 15 and 46”; the “activation of caspases-3 and -9” value was “an increased activation of caspases-3 and -9”. The “intracellular PN concentration upon acute addition” value with A549 cells [2] is “increased the intracellular PN concentration”. Besides, in the data set on A549 cells [3] (25 μM CDDP and 5 mM PN in combination, not present with either compound alone), the “Atkinson's energy charge” value is on record as “exhibited a bioenergetic defect”. For the same compound, the “CDDP-induced decrease in GSH and redox-relevant metabolites (carnitine, acetylcarnitine, propionylcarnitine)” value in the data set with A549 cells [3] (25 μM CDDP with 5 mM PN) was “largely exacerbated by PN”.
With `N.N.[Cl][Pt][Cl]` [CDDP, cis-diammineplatinum(II) dichloride], the “intracellular levels of GSH” value in the data set with A549 cells [3] (25 μM CDDP) was “a decrease in the intracellular levels of GSH”.
